# Read-outs that look alike come from different tables or passages of the source.
# Assays:
# [1] = plasma stability in human plasma; format: in vitro ADME; conditions: human
# Description: The plasma stability of the angiogenesis inhibitor compounds of the invention was also tested in human plasma at 37° C. (at a 20 μM concentration of the angiogenesis inhibitor compound). The matrix minus the test angiogenesis inhibitor compound was equilibrated at 37° C. for 3 minutes. The assay was initiated by addition of the test compound, and the reaction mixture was incubated in a shaking water bath at 37° C. […] The supernatant was analysed by Liquid Chromatography/Mass spectrometry (LC/MS) using a four point standard curve to obtain percent recovery.
# The parent compound remaining (relative to time 0) in the incubation mixture was plotted as a function of time; a first order exponential equation was fit to the observed data, and the elimination half-lives associated with the disappearance of the test angiogenesis inhibitor compound were determined.
# [2] = stability in liver microsomes; format: in vitro ADME, rat; conditions: male, rat, liver microsomes, pH 7.4, male rat liver microsomes 0.5 mg/mL, NADPH regenerating system
# Description: The stability of the angiogenesis inhibitor compounds in liver microsomes was also tested. The test angiogenesis inhibitor compound at a concentration of 3 μM was incubated with male rat liver microsomes (0.5 mg/mL protein) in the presence of a NADPH regenerating system (1 mM NADP, 10 mM G6P, 1 U/mL G6PdH2, 3 mM MgCl2 ) in 100 mM Phosphate buffer at pH 7.4 at 37° C. Incubations were performed in the presence and absence of 1 μM epoxide hydrolase (EH) inhibitor N-cyclohexyl-N′-(3-phenylpropyl)urea (M. Morisseau et al. (1999) PNAS 96:8849-54) and quantitative analysis performed using LC/MS/MS.
# The parent compound remaining (relative to time 0) in the incubation mixture was plotted as a function of time; a first order exponential equation was fit to the observed data, and the elimination half-lives associated with the disappearance of the test compound were determined.
# [3] = test system: collagen-induced arthritis; assay: collagen-induced arthritis model; format: in vivo, Louvain rats; conditions: for mean radiological evaluation score: control group 2.2
# Description: The efficacy of the compound described above in example 5 was evaluated using a collagen-induced arthritis model. Briefly, syngeneic 8-week-old female Louvain rats were immunized intradermally under ether anesthesia on Day 0 with 0.5 mg chick collagen II (Genzyme, Boston, Mass.) solubilized in 0.1M acetic acid and emulsified in Incomplete Freund's Adjuvant (Difco, Detroit, Mich.). Using this method, more than 90% of rats typically develop synovitis in both hind limbs 10-14 days post immunization. […] The compound of example 5 was dissolved in a combination of ethanol and distilled water. The rats were dosed commencing on day 10 post immunization as follows: (1) control group: vehicle only daily via intravenous injection (iv) (12 rats), (2) high dose group: 30 mg/kg of the compound of example 5 iv every other day (12 rats), (3) low dose group: 15 mg/kg of the compound of example 5 iv every day (12 rats) and (4) oral group: 100 mg/kg of the compound of example 5 every other day by gavage (11 rats).
# Daily clinical evaluations of each paw were graded on an integer scale ranging from 0 to 4, where a score of 0 indicates a normal, unaffected limb, and 4 indicates severe joint destruction. The clinical score is the sum of the four limb scores, and has a maximum possible value of 16. Collagen induced arthritis typically develops only in the hind limbs; therefore, a score of 6 to 8 represents severe arthritis.
# Radiologic evaluations of the hind limbs were performed by an investigator blinded to the treatment protocol. The score assigned to each limb was based on (1) the degree of soft tissue swelling, (2) narrowing of the space between joints, (3) degree of periosteal new bone formation and (4) the presence of erosions or ankylosis. Each limb was scored on a scale of 1 to 3, with 1 representing a normal limb and 3 representing severe joint destruction.
# [4] = test system: human tumor cell lines; assay: panel of cancer cell lines, overall; format: cell-based; conditions: in words, summary of Table VIII
# Description: The compound of example 5 was also evaluated against a panel of cancer cell lines (Alley, M. C. et al. […] Cancer Research 48: 589-601; Grever, M. R., et al. (1992) Seminars in Oncology, Vol. 19, No. 6, pp 622-638; Boyd, M. R., and Paull, K. D. (1995) Drug Development Research 34: 91-109). The human tumor cell lines of the cancer screening panel were grown in RPMI 1640 medium containing 5% fetal bovine serum and 2 mM L-glutamine. Cells were inoculated into 96 well microtiter plates in 100 μL at plating densities ranging from 5,000 to 40,000 cells/well depending on the doubling time of individual cell lines. […]
# Following drug addition, the plates were incubated for an additional 48 hours at 37° C., 5% CO2, 95% air, and 100% relative humidity. […] Bound stain was subsequently solubilized with 10 mM trizma base, and the absorbance was read on an automated plate reader at a wavelength of 515 nm. […] Using the seven absorbance measurements [time zero, (Tz), control growth, (C), and test growth in the presence of drug at the five concentration levels (Ti)], the percentage growth was calculated at each of the drug concentrations levels.
# Percentage growth inhibition was calculated as: [(Ti−Tz)/(C−Tz)]×100 for concentrations for which Ti>/=Tz [(Ti−Tz)/Tz]×100 for concentrations for which Ti<Tz. […]
compound,measurement,setting,value
"CO[C@@H]1[C@H](OC(=O)N[C@@H](C(N)=O)C(C)C)CC[C@]2(CO2)[C@H]1[C@@]1(C)O[C@@H]1CC=C(C)C [Example 5, (1-Carbamoyl-2-methyl-propyl)-carbamic acid-(3R,4S,5S,6R )-5-methoxy-4-[(2R,3R)-2-methyl-3-(3-methyl-but-2-enyl)-oxiranyl]-1-oxa-spiro[2.5]oct-6-yl ester]","recovery at 0 min, 20 μM",[1],100%
same,"recovery at 15 min, 20 μM",[1],108%
same,"recovery at 30 min, 20 μM",[1],103%
same,"recovery at 60 min, 20 μM",[1],97%
same,"recovery at 90 min, 20 μM",[1],129%
same,"recovery at 120 min, 20 μM",[1],107%
same,half-life at 20 μM,[1]; plasma,≥ 500 min
same,half-life at 3 μM,"[2]; with 1 μM EH inhibitor, read-out: T1/2 (with EH inhibitor)",12.1 ± 1 min
same,half-life at 3 μM,"[2]; without EH inhibitor, read-out: T1/2 (without EH inhibitor)",11.9 ± 1 min
same,mean daily clinical score (FIG. 2),"[3]; each treatment group, 19 day period from day 10",significant therapeutic benefit
same,mean radiological evaluation score,[3]; high dose group: 30 mg/kg iv every other day,0.6
same,mean radiological evaluation score,[3]; low dose group: 15 mg/kg iv every day,0.6
same,mean radiological evaluation score,[3]; oral group: 100 mg/kg every other day by gavage,1.6
same,inhibitory effect on tumor cell lines,[4],significant inhibitory effect on a wide variety of tumor cell lines

# Reference: patent publication US20050130903A1, “Therapeutic agents and methods of use thereof for the modulation of angiogenesis” (priority 2000, published 2005)
